Test system: multiple of infections (MOI)

With `OC[C@H]1O[C@@](CO)(O[C@H]2O[C@H](CO)[C@@H](O)[C@H](O)[C@H]2O)[C@@H](O)[C@@H]1O` [5% Sucrose, sucrose] the “bacterial and viral growth / resistance to proteolysis by MOI” value (medium streaked with mixed MOI culture) was “bacterial activity and viral replication at exponential rate”, the “Comparative Degree of Resistance” value (resistance to proteolysis by MOI, ambient temperature (24° C.)) was 5.0 h and the “Relative Resistance” value (resistance to proteolysis by MOI, ambient temperature (24° C.), 5% Sucrose = 1.0) was 1.0.
